From patent US20250032430A1, “USES OF RHODOQUINONE FOR THE TREATMENT OF DISEASE” (Whitehead Institute for Biomedical Research, priority 2021, published 2025)
Read-outs that look alike come from different tables or passages of the source.

Tests used:
kidney = experiment: Kidney tissue cultured ex vivo (quinone levels, fumarate reduction); design: species or system mouse; details: kidney cultured ex vivo for 96 hours, reduced rhodoquinone levels; succinate oxidation not affected
Procedure: (§1) Ex vivo stable isotope tracing on tissues: Tissues were excised from mice and washed in 1×PBS. Tissues were then cut into small pieces and placed in the appropriate stable isotope tracing media. Stable isotope tracing media contained either ^13C5^15N2-glutamine (Sigma) or 13C4-aspartate (Sigma) dissolved in DMEM, 5% FBS, 1% P/S. For ex vivo tracing experiments performed on the brain, the same media was used without FBS. Tissues were incubated for the designated time at 37° C. in a normal or hypoxia tissue culture incubator. Tissues were removed from the media, washed with PBS, and flash frozen in liquid nitrogen. Samples could be stored at −80° C. until metabolites were isolated.
Rhodoquinone-9 is a previously unknown mammalian metabolite. Without wishing to be bound by any particular theory, it is believed that since the level of rhodoquinone-9 decreases overtime when the kidney is cultured ex vivo, that cultured media is missing a component of the rhodoquinone biosynthetic pathway, and that this component may be coming from the gut microbiome.

mammalian cells = experiment: Resistance of cells to hypoxia; type: cell-based
[1] = system: kidney derived cancer cell line; experiment: Western blot of kidney derived cancer cell line cultured in hypoxia (NRF2, PDH phosphorylation); type: cell-based; details: hypoxia for 5 days
Procedure: This includes NRF2 accumulation, which is a sensor of oxidative stress, and phosphorylation on PDH, which is a marker of AMPK activation. AMPK senses AMP, and is hyperactive when cells have “low energy”
Western Blots: Adherent cells were lysed in RIPA buffer (150 mM NaCl, 50 mM Tris-HCl, pH 7.5, 0.1% SDS, 1% Triton-X 100 (Sigma), 0.5% deoxycholate (Sigma), complete EDTA-free protease inhibitor (Sigma)) and clarified by centrifugation. Protein content was quantified using a Pierce BCA Protein Assay Kit (Life Technologies) and 30-50 μg protein were loaded on 12% Tris-Glycine Novex Gels (Invitrogen). Proteins were subsequently transferred to a 0.45 μm PVDF membrane (Sigma). Primary antibodies were used at the following dilutions in 5% BSA:SDHA (Proteintech; 1:1000), NDUFV1 (Abcam; 1:1000), Total OXPHOS Rodent WB Antibody Cocktail-containing UQCRC2, SDHB, and ATP5A (Abcam; 1:1000), COX IV (Cell Signaling Technology; 1:1000), MT-ND5 (Abcam; 1:1000), FLAG (Sigma; 1:1000), HIF1a (Cell Signaling Technology; 1:1000), ATP citrate lyase (Abcam; 1:1000), Citrate Synthase (Cell Signaling; 1:1000). Secondary antibodies were used at the following dilutions in 5% Milk:Anti-rabbit IgG HRP-linked Antibody (1:5000, Cell Signaling Technology), Anti-mouse IgG HRP-linked Antibody (1:5000, Cell Signaling Technology). […]

143B cells = experiment: Polar metabolite profiling (succinate level); type: cell-based, human; details: 500 nM antimycin 8 hours
Procedure: Isolation of metabolites from adherent cells: To isolate metabolites, media was removed, cells were washed 2 times with ice cold 1×PBS, and wells were covered in LC-MS grade 80:20 Methanol:Water (ThermoFisher). Plates were scraped on dry ice and lysates were collected into eppendorf tubes. Lysates were vortexed for 10 minutes at 4° C. and centrifuged at 16,000×g for 10 minutes at 4° C. Supernatants were immediately dried down in a Refrigerated CentriVap Benchtop Vacuum Concentrator connected to a CentriVap-105 Cold Trap (Labconco). Dried pellets were stored at −80° C. until they were run on LC-MS.
Liquid Chromatography and Mass Spectrometry (polar): A QExactive bench top orbitrap mass spectrometer equipped with an Ion Max source and a HESI II probe coupled to a Dionex UltiMate 3000 HPLC system (Thermo Fisher Scientific) was used to perform all LC-MS experiments. The instrument underwent mass calibration using the standard calibration mixture every 7 days. 2 μL of re-suspended polar metabolite samples were injected onto a SeQuant ZIC-pHILIC 5 μm 150×2.1 mm analytical column equipped with a 2.1×20 mm guard column (MilliporeSigma). The column oven was held at 25° C. and the autosampler tray was held at 4° C. Buffer A was comprised of 20 mM ammonium carbonate, 0.1% ammonium hydroxide. Buffer B was comprised of 100% acetonitrile. […]

DHODH [2] = experiment: Ex vivo DHODH activity in mouse tissues (13C4-aspartate into 13C4-orotate); details: 2 μM antimycin
Procedure: Because net-reversal of the SDH complex supports DHODH activity in cultured cells when O2 reduction is blocked (FIG. 3), mouse tissues were tested. DHODH activity was measured in tissues that are capable (the liver and kidney) or incapable (the heart and gastrocnemius muscle) of net-reversing the SDH complex when O2 reduction is limited. […] Next, DHODH activity was assessed via ^13C4-aspartate incorporation into ^13C4-orotate, because labelling of the ^13C3-UTP pool was undetectable in most tissues.
as §1, with “Tissues were removed from the media, washed with PBS, and flash frozen in liquid nitrogen. Samples could be stored at −80° C. until metabolites were isolated.” left out
Isolation of metabolites from tissues: Tissues were flash frozen and powderized with a mortar and pestle in a liquid nitrogen bath. […] The top layer was transferred to a new tube, dried down in a speedvac, and subsequently stored at −80° C. until they were analyzed by LC-MS. […] Protein in each sample was quantified using the Pierce BCA Protein Assay Kit (Life Technologies). […]

DHODH [3] = molecular target: DHODH (Homo sapiens, UniProt Q02127); details: for de novo UTP biosynthesis (13C3-UTP generation, DHODH activity): wild-type 143B cells, 13C4-aspartate tracing 8 hours, 500 nM antimycin, 2 μM brequinar
DHODH (Homo sapiens, UniProt Q02127), sequence (Q02127 whole entry): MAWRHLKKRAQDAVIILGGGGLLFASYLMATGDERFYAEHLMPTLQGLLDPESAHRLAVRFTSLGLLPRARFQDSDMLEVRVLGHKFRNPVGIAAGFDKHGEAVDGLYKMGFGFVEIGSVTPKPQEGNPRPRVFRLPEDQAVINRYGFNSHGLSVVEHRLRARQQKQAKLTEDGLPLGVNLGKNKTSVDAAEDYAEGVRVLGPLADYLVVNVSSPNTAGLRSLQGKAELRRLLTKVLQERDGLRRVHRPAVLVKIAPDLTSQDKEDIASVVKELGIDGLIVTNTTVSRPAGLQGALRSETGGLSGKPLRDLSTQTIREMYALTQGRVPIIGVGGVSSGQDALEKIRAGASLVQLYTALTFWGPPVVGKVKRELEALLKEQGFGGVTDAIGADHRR
Procedure: Stable isotope tracing in cells: Cells were seeded 24 hours prior to the experiment in 6-well dishes at 70% density. For stable isotope tracing of glutamine, glutamine-free DMEM (ThermoFisher) was supplemented with 2 mM ^13C5^15N2-glutamine (Sigma), 1 mM pyruvate, 5% FBS, 1% P/S, 0.1 mg/mL uridine. For stable isotope tracing of aspartate, DMEM containing 5% FBS, and 1% penicillin and streptomycin, and 0.1 mg/mL uridine (Sigma) was supplemented with the designated amount of 13C4-aspartate (Sigma) and the pH adjusted to 7.4. Uridine was left out of the media for stable isotope tracing experiments measuring nucleotide biosynthesis. Unless otherwise stated, for all experiments, cells were treated for 8 hours and metabolites were isolated as described below. Relevant compounds were added at the start of the incubation periods.
Liquid Chromatography and Mass Spectrometry (polar): A QExactive bench top orbitrap mass spectrometer equipped with an Ion Max source and a HESI II probe coupled to a Dionex UltiMate 3000 HPLC system (Thermo Fisher Scientific) was used to perform all LC-MS experiments. The instrument underwent mass calibration using the standard calibration mixture every 7 days. 2 μL of re-suspended polar metabolite samples were injected onto a SeQuant ZIC-pHILIC 5 μm 150×2.1 mm analytical column equipped with a 2.1×20 mm guard column (MilliporeSigma). The column oven was held at 25° C. and the autosampler tray was held at 4° C. Buffer A was comprised of 20 mM ammonium carbonate, 0.1% ammonium hydroxide. Buffer B was comprised of 100% acetonitrile. The chromatographic gradient was run at a flow rate of 0.150 mL/min as follows: 0-20 min: linear gradient from 80-20% B; 20-20.5 min: linear gradient from 20-80% B; 20.5-28 min: hold at 80% B. The mass spectrometer was operated in full-scan, polarity-switching mode, with the spray voltage set to 3.0 kV, the heated capillary at 275° C., and the HESI probe at 350° C. The sheath gas flow was 40 units, the auxiliary gas flow was 15 units, and the sweep gas flow was 1 unit. MS data was collected in a range of m/z=70-1000. The resolution set at 70,000, the AGC target at 1×106, and the maximum injection time at 20 msec. An additional scan (m/z=220-700) was included in negative mode only to enhance detection of nucleotides.

Substance | fumarate reduction in the kidney (kidney) | resistance to hypoxia (mammalian cells) | oxidative and bioenergetic stresses (NRF2 accumulation, phosphorylation on PDH) [1] | succinate level (143B cells) | levels of 13C4-orotate (DHODH activity) (DHODH [2]; ex vivo heart and gastrocnemius muscle) | levels of 13C4-orotate (DHODH activity) (DHODH [2]; ex vivo liver and kidney) | DHODH activity (13C3-UTP production) (DHODH [3]) | DHODH activity (13C4-aspartate into 13C3-UTP) (DHODH [3]; combined inhibition of complex III with antimycin and complex I with piericidin) | de novo UTP biosynthesis (13C3-UTP generation, DHODH activity) (DHODH [3]) | de novo UTP biosynthesis (13C3-UTP generation, DHODH activity) (DHODH [3]; listed as Antimycin)
rhodoquinone | required for ubiquitous fumarate reduction | renders mammalian cells resistant to hypoxia | protects against oxidative and bioenergetic stresses |  |  |  |  |  |  | 
antimycin |  |  |  | increase | reduced | remained unchanged | ablated | no effect | did not decrease | no effect
